One series has as its system HFLS-RA cells. The experiment in a line: Effect on HFLS-RA cell proliferation activity (CCK-8). The format is cell-based, human. The note with it: TNF-α 10 ng/mL induced HFLS-RA cells, 72 h after treatment, x ± s. How it is done:
Co-incubation: HFLS-RA cells in a logarithmic growth phase were inoculated in a 96-well culture plate at a density of 3×10^4 cells/ml with an inoculation volume of each well being 100 μL, and cultured for 24 h in a 37° C. and 5% CO2 incubator (the cell adhesion convergence degree reached about 25%) after inoculation, and then a proper amount of sample solutions was added according to the grouping and final concentrations of samples, with 3 duplicated wells set in each group. Before sampling (0 h), group 1 in blank control group was subjected to CCK-8 detection, and the rest groups were cultured for 72 h in an incubator and then subjected to CCK-8 detection.
Detection and calculation: the culture solution was discarded, and 100 μL of culture medium containing a 10% CCK-8 solution was added into each well and incubated for 2 h at 37° C. The light absorption value (OD value) was measured at 450 nm using a microplate reader, and the cell proliferation rate was calculated according to the following formula.
cell proliferation rate=[OD(72 h)−OD(0 h)]/OD(0 h)×100%, Calculation formula
where, OD(0 h) represents the OD value at 0 h, and […].

The next series has as its system IL-8 in HFLS-RA cells. The experiment in a line: Effect on HFLS-RA cytokine secretion, IL-8 (ELISA). The format is cell-based, human. Further details: unit not given here. The note with it: supernatant content, TNF-α 10 ng/mL, test sample 100 µg/mL, 48 h culture, x ± s. How it is done: (§1) The experiment was divided into a blank control group (containing no test samples or TNF-α), a TNF-α group (the final concentration of TNF-α for cell incubation was 10 ng/mL), test sample groups (8 groups in total, including DSC4801 group, DSC4807 group, DSC4810 group, DSC4813 group, DSC4821 group and DSC4826 group as well as control 1 group, control 3 group, the final concentrations of test samples for cell incubation and of TNT-α were 100 µg/mL and 10 ng/mL, respectively).
(§2) HFLS-RA cells in a logarithmic growth phase were inoculated in a 6-well culture plate at a density of 5×10^4 cell/ml with an inoculation volume of each well being 200 μL, and cultured for 2 h in a 37° C. and 5% CO2 incubator after inoculation, and then a proper amount of sample solutions was added according to the grouping and the final concentrations of samples, with 3 duplicated wells set in each group. Cell supernatant was collected after further culture of 48 h, and the contents of IL-6 and IL-8 in the supernatant were detected using an ELISA kit.

Another series relates to IL-6 in HFLS-RA cells. In words: Effect on HFLS-RA cytokine secretion, IL-6 (ELISA). The note with it: supernatant content, TNF-α 10 ng/mL, test sample 100 µg/mL, 48 h culture, x ± s. The class given is cell-based, human. Set-up: unit not given here. As for the experimental part:
as §1, §2

The conditions of series [1]: after oral administration; cited from earlier work.
For series [2] the following is noted: cited from earlier work.
For series [3] the following is noted: single local administration of 1% loxoprofen (100 mg), in 12 hours; cited from earlier work.
Series [4] is described as follows: Joint tissue distribution after oral gavage. The class given is in vivo. Particulars: SD rats, ankle joint tissue at 0.5, 1, 2 h, trans-OH metabolite detected by LC-MS/MS, compared with control 1 and control 2, P<0.001 (FIG. 1). As for the experimental part: 36 healthy male SD rats with a body weight of 200±20 g per rat were fed under conditions of a room temperature of 20-26° C., a humidity of 40%-70% and a light and dark cycle of 12 h/12 h, the rats were fed at liberty in the process of feeding. After adaptive feeding for 3 days, the SD rats were randomly divided into 4 groups (A/B/C/D groups), with 9 rats per group, each group was further randomly divided into 3 time groups, with 3 rats per time group. A suspension (the test samples were suspended with 1% MS, respectively) of the test sample was given to each group via oral gavage, wherein group A was administrated with 3 mg/kg of DSC4813, group B was administrated with 2.94 mg/kg of DSC4821, group C was administrated with 2.47 mg/kg of control 1, and group D was administrated with 2 mg/kg of control 2 (loxoprofen). 3 rats were anesthetized and euthanized in each group at 0.5 h, 1 h and 2 h, respectively after administration. The left and right ankle joints of hind legs were dissected, and the skin at the joints was peeled off. […] To-be-detected substances were detected by LC-MS/MS (compound trans-OH metabolite was detected for groups A/B/C, loxoprofen and all isomers whose carbonyl was reduced to OH for group D, and the results of group D were a sum of concentrations of loxoprofen and all isomers whose carbonyl was reduced to OH).

The structures appear in SMILES notation.

In turn, `CCCC(=O)O[C@H]1CCC[C@@H]1Cc1ccc([C@H](C)C(=O)O)cc1` [Control 1, reference compound] showed a Cell proliferation rate with HFLS-RA cells of 39.33 ± 3.46%. This compound gave an IL-8 with IL-8 in HFLS-RA cells of 131.21 ± 6.88. For the same compound, the IL-6 in the series on IL-6 in HFLS-RA cells was found to be 67.45 ± 2.68. In the series on HFLS-RA cells, `CC(C(=O)O)c1ccc(CC2CCCC2=O)cc1` (stereo not drawn) [Control 2, loxoprofen, reference compound] showed a Cell proliferation rate of 48.25 ± 3.21%. Regarding `CC(C(=O)O)c1ccc(CC2CCCC2=O)cc1` (stereo not drawn) [Control 2, loxoprofen], the “Time until plasma concentration reaches peak” value in series [1] was 30 to 50 min. The “Plasma protein binding rate” value in series [2] is on record as 97%. Moreover, in series [3], the “Dose transferred to a body” value was 10%. Regarding `CCN(CC)CCOC(=O)[C@@H](C)c1ccc(C[C@H]2CCC[C@@H]2O)cc1` [DSC4801], the Cell proliferation rate in the series on HFLS-RA cells is on record as 31.18 ± 1.82%. In the series with IL-8 in HFLS-RA cells, the IL-8 is given as 119.08 ± 4.55. Besides, the IL-6 in the series with IL-6 in HFLS-RA cells was 46.26 ± 0.35.

`CCN(CC)CCOCCOC(=O)[C@@H](C)c1ccc(C[C@H]2CCC[C@@H]2O)cc1` [DSC4802] showed a Cell proliferation rate in the series on HFLS-RA cells of 27.26 ± 2.41%. The same measure, in the same setting: the result for `CCN(CC)CCN(CC)CCOC(=O)[C@@H](C)c1ccc(C[C@H]2CCC[C@@H]2O)cc1` [DSC4803] reads 30.17 ± 1.85%; that for `CCN(CC)CCOC(=O)[C@@H](C)c1ccc(C[C@H]2CCC[C@@H]2OC(C)=O)cc1` [DSC4804], 29.36 ± 2.33%. Still for that read-out and setting: the result for `CCN(CC)CCOCCOC(=O)[C@@H](C)c1ccc(C[C@H]2CCC[C@@H]2OC(C)=O)cc1` [DSC4805] reads 29.28 ± 1.92%; that for `CCN(CC)CCOC(=O)[C@@H](C)c1ccc(C[C@H]2CCC[C@@H]2OC(=O)C(CS)N(C)C)cc1` (stereo partly drawn) [DSC4806], 24.19 ± 2.24%.

`CCN(CC)CCOCC(=O)O[C@H]1CCC[C@@H]1Cc1ccc([C@H](C)C(=O)O)cc1` [DSC4807] displayed a Cell proliferation rate with HFLS-RA cells of 22.23 ± 3.04%. Moreover, in the series with IL-8 in HFLS-RA cells, the IL-8 came to 121.66 ± 4.78. Besides, the IL-6 with IL-6 in HFLS-RA cells was 48.01 ± 0.77.

Consider `CCN(CC)CCNCCOCC(=O)O[C@H]1CCC[C@@H]1Cc1ccc([C@H](C)C(=O)O)cc1` [DSC4808], for which the Cell proliferation rate in the series with HFLS-RA cells turned out to be 23.11 ± 2.25%.

Take `C[C@H](C(=O)O)c1ccc(C[C@H]2CCC[C@@H]2OC(=O)C(N)CS)cc1` (stereo partly drawn) [DSC4809]: the Cell proliferation rate in the series with HFLS-RA cells is 22.47 ± 1.99%.

For the compound `C[C@H](C(=O)O)c1ccc(C[C@H]2CCC[C@@H]2OC(=O)C(CS)N(C)C)cc1` (stereo partly drawn) [DSC4810], the Cell proliferation rate in the series on HFLS-RA cells is 24.95 ± 2.65%. In the series on IL-8 in HFLS-RA cells, this compound yielded an IL-8 of 118.57 ± 3.92. The compound also yielded an IL-6 with IL-6 in HFLS-RA cells of 47.88 ± 0.72.

As for `CCOC(=O)[C@@H](C)c1ccc(C[C@H]2CCC[C@@H]2OC(=O)COCCN(CC)CC)cc1` [DSC4811], in the series with HFLS-RA cells, the Cell proliferation rate is on record as 22.37 ± 1.78%. `CCOC(=O)[C@@H](C)c1ccc(C[C@H]2CCC[C@@H]2OC(=O)C(CS)N(C)C)cc1` (stereo partly drawn) [DSC4812] had a Cell proliferation rate in the series on HFLS-RA cells of 23.81 ± 2.21%.

Regarding `C[C@H](C(=O)OCCN1C(=O)CCC1=O)c1ccc(C[C@H]2CCC[C@@H]2O)cc1` [DSC4813], the Cell proliferation rate in the series with HFLS-RA cells turned out to be 22.34 ± 2.72%. Besides, the IL-8 with IL-8 in HFLS-RA cells was determined as 119.48 ± 4.07. In addition, the Distribution at joints result in series [4] is “significantly improved”. The compound further had an IL-6 with IL-6 in HFLS-RA cells of 46.82 ± 0.63. Turning to `CC(=O)O[C@H]1CCC[C@@H]1Cc1ccc([C@H](C)C(=O)OCCN2C(=O)CCC2=O)cc1` [DSC4814], the Cell proliferation rate in the series on HFLS-RA cells is 24.36 ± 1.99%. With `CC[N+](CC)(CC)CCOC(=O)[C@@H](C)c1ccc(C[C@H]2CCC[C@@H]2O)cc1` [DSC4815], the Cell proliferation rate in the series on HFLS-RA cells stood at 28.31 ± 2.26%. On the same count and under the same terms, the result for `CC[N+](CC)(CC)CCOC(=O)[C@@H](C)c1ccc(C[C@H]2CCC[C@@H]2O)cc1` [DSC4816] reads 29.71 ± 2.83%; that for `CCOC(=O)[C@@H](C)c1ccc(C[C@H]2CCC[C@@H]2OC(=O)COCC[N+](CC)(CC)CC)cc1` [DSC4817], 23.32 ± 2.46%; that for `CCOC(=O)[C@@H](C)c1ccc(C[C@H]2CCC[C@@H]2OC(=O)COCC[N+](CC)(CC)CC)cc1` [DSC4818], 22.54 ± 2.14%.

In the series on HFLS-RA cells, `CCOC(=O)[C@@H](C)c1ccc(C[C@H]2CCC[C@@H]2OC(=O)CN(CC)CC)cc1` [DSC4819] showed a Cell proliferation rate of 20.36 ± 2.10%. The same measure, in the same setting: under `CCOC(=O)[C@@H](C)c1ccc(C[C@H]2CCC[C@@H]2OC(=O)CCN(CC)CC)cc1` [DSC4820] stands 21.11 ± 3.56%. Turning to `CCN(CC)CC(=O)O[C@H]1CCC[C@@H]1Cc1ccc([C@H](C)C(=O)O)cc1` [DSC4821], the Cell proliferation rate with HFLS-RA cells is 20.96 ± 1.85%. The IL-8 in the series with IL-8 in HFLS-RA cells worked out at 117.72 ± 3.43. For the same compound, the Distribution at joints entry in series [4] is given as “significantly improved”. In the series on IL-6 in HFLS-RA cells, this compound returned an IL-6 of 46.58 ± 0.61. Consider `CCOC(=O)[C@@H](C)c1ccc(C[C@H]2CCC[C@@H]2OC(=O)OCCN(CC)CC)cc1` [DSC4825], for which, in the series with HFLS-RA cells, the Cell proliferation rate stood at 22.53 ± 2.66%. In the case of `CCN(CC)CCOC(=O)O[C@H]1CCC[C@@H]1Cc1ccc([C@H](C)C(=O)O)cc1` [DSC4826], the Cell proliferation rate with HFLS-RA cells is 21.43 ± 1.94%. For the same compound, the IL-8 with IL-8 in HFLS-RA cells is 117.77 ± 4.23. In the series on IL-6 in HFLS-RA cells, this compound yielded an IL-6 of 47.59 ± 0.45.

Consider `CN(Cc1cnc2nc(N)nc(N)c2n1)c1ccc(C(=O)N[C@@H](CCC(=O)O)C(=O)O)cc1` [Negative control group, methotrexate, reference compound], for which, in the series on HFLS-RA cells (methotrexate 1 g/mL), the Cell proliferation rate is 18.37 ± 1.32%.

Values taken from patent publication US20250281452A1, “CHIRAL ARYL PROPIONIC ACID DERIVATIVE AND PHARMACEUTICAL COMPOSITION THEREOF, AND USE” (SHIJIAZHUANG DISCOVERY MEDICINE TECHNOLOGY CO., LTD, priority 2022, published 2025).
